These results are taken from patent publication US8710083B2, “Pyridylphenyl compounds for inflammation and immune-related uses” (Synta Pharmaceuticals Corp., priority 2006, dated 2014).

Structures can show the parent of a compound that is named as a salt.

Broadly, the IC50 is the concentration that inhibits the measured activity by half. The low end stands for greater potency, the high end for weaker potency.

For one experiment, the system named is IL-2 production. Kind of experiment: Inhibition of IL-2 production in PHA-activated Jurkat cells (ELISA). The class given is cell-based. The settings on record: Homo sapiens, Jurkat, 20 h, PHA 2.5 μg/mL, IL-2 ELISA. On the procedure: Jurkat cells were placed in a 96 well plate (0.5 million cells per well in 1% FBS medium) then a test compound of this invention was added at different concentrations. After 10 minutes, the cells were activated with PHA (final concentration 2.5 μg/mL) and incubated for 20 hours at 37° C. under CO2. The final volume was 200 μL. Following incubation, the cells were centrifuged and the supernatants collected and stored at −70° C. prior to assaying for IL-2 production. A commercial ELISA kit (IL-2 Eli-pair, Diaclone Research, Besancon, France) was used to detect production of IL-2, from which dose response curves were obtained. The IC50 value was calculated as the concentration at which 50% of maximum IL-2 production after stimulation was inhibited versus a non-stimulation control.
In turn, `COC(=O)c1ccc(Cl)c(-c2ccc(NC(=O)c3c(F)cccc3F)nc2)c1` [Compound 6, 4-Chloro-3-[6-(2,6-difluoro-benzoylamino)-pyridin-3-yl]-benzoic acid methyl ester] gave a half-inhibitory concentration (IC50) of 6 nM.

Compound `COC(=O)c1ccc(C)c(-c2ccc(NC(=O)c3c(F)cccc3F)nc2)c1` [Compound 7, 3-[6-(2,6-Difluoro-benzoylamino)-pyridin-3-yl]-4-methyl-benzoic acid methyl ester] showed an IC50 of 4 nM.

In the case of `O=C(Nc1ccc(-c2cc(-c3ncco3)ccc2Cl)cn1)c1c(F)cccc1F` [Compound 8, N-[5-(2-Chloro-5-oxazol-2-yl-phenyl)-pyridin-2-yl]-2,6-difluoro-benzamide], the IC50 was 3 nM.

`O=C(Nc1ccc(-c2cc(-c3nccs3)ccc2Cl)cn1)c1c(F)cccc1F` [Compound 10, N-[5-(2-Chloro-5-thiazol-2-yl-phenyl)-pyridin-2-yl]-2,6-difluoro-benzamide]: the half-maximal inhibitory concentration (IC50) came out at 2 nM. Compared with the last compound, the IC50 is about 1.5-fold lower.

In turn, `Cc1cc(NC(=O)c2c(F)cccc2F)ncc1-c1cccc(C(F)(F)F)c1` [Compound 14, 2,6-Difluoro-N-[4-methyl-5-(3-trifluoromethyl-phenyl)-pyridin-2-yl]-benzamide] yielded an IC50 of 16 nM.

`Cc1nc(NC(=O)c2c(F)cccc2F)ccc1-c1cccc(C(F)(F)F)c1` [Compound 15, 2,6-Difluoro-N-[6-methyl-5-(3-trifluoromethyl-phenyl)-pyridin-2-yl]-benzamide]: the 50% inhibitory concentration (IC50) amounted to 98 nM.

In turn, `Cc1nnsc1C(=O)Nc1ccc(-c2cc(C(F)(F)F)ccc2Cl)cn1` [Compound 16, 4-Methyl-[1,2,3]thiadiazole-5-carboxylic acid [5-(2-chloro-5-trifluoromethyl-phenyl)-pyridin-2-yl]-amide] yielded an IC50 of 15 nM.

As for `Cc1nnsc1C(=O)Nc1ccc(-c2cc(-c3nccs3)ccc2Cl)cn1` [Compound 17, 4-Methyl-[1,2,3]thiadiazole-5-carboxylic acid [5-(2-chloro-5-thiazol-2-yl-phenyl)-pyridin-2-yl]-amide], half-maximal inhibition (IC50) was put at 2 nM.

In turn, `Cc1ccc(-c2ncco2)cc1-c1ccc(NC(=O)c2snnc2C)nc1` [Compound 18, 4-Methyl-[1,2,3]thiadiazole-5-carboxylic acid [5-(2-methyl-5-oxazol-2-yl-phenyl)-pyridin-2-yl]-amide] displayed an IC50 of 12 nM.

Compound `Cc1nnsc1C(=O)Nc1ccc(-c2cc(-c3ncco3)ccc2Cl)cn1` [Compound 19, 4-Methyl-[1,2,3]thiadiazole-5-carboxylic acid [5-(2-chloro-5-oxazol-2-yl-phenyl)-pyridin-2-yl]-amide] gave a half-inhibitory concentration (IC50) of 7 nM.

On to `Cc1ccc(-c2ncco2)cc1-c1ccc(NC(=O)c2c(F)cccc2F)cn1` [Compound 20, 2,6-Difluoro-N-[6-(2-methyl-5-oxazol-2-yl-phenyl)-pyridin-3-yl]-benzamide hydrochloride], for which the midpoint of inhibition, the IC50, lay at 12 nM.

Turning to `Cc1ccc(-c2cnco2)cc1-c1ccc(NC(=O)c2snnc2C)nc1` [Compound 21, 4-methyl-N-(5-(2-methyl-5-(oxazol-5-yl)phenyl)pyridin-2-yl)-1,2,3-thiadiazole-5-carboxamide], the half-inhibitory concentration (IC50) amounted to 31 nM.

The compound `COc1ccc(-c2cnco2)cc1-c1ccc(NC(=O)c2snnc2C)nc1` [Compound 67, N-(5-(2-methoxy-5-(oxazol-5-yl)phenyl)pyridin-2-yl)-4-methyl-1,2,3-thiadiazole-5-carboxamide] registered an IC50 of 7 nM.

As to `Cc1ccc(-c2ccno2)cc1-c1ccc(NC(=O)c2snnc2C)nc1` [Compound 68, N-(5-(5-(isoxazol-5-yl)-2-methylphenyl)pyridin-2-yl)-4-methyl-1,2,3-thiadiazole-5-carboxamide], half-maximal inhibition (IC50) required 38 nM.

In turn, `Cc1ccc(-c2nnco2)cc1-c1ccc(NC(=O)c2c(F)cccc2F)nc1` [Compound 69, 2,6-difluoro-N-(5-(2-methyl-5-(1,3,4-oxadiazol-2-yl)phenyl)pyridin-2-yl)benzamide] had a concentration for half-maximal inhibition (IC50) of 73 nM.

Take `Cc1ccc(-c2cnco2)cc1-c1ccc(NC(=O)c2c(F)cccc2F)nc1` [Compound 70, 2,6-difluoro-N-(5-(2-methyl-5-(oxazol-5-yl)phenyl)pyridin-2-yl)benzamide]: the 50% inhibitory concentration (IC50) is 9 nM.

`O=C(Nc1ccc(-c2cc(-c3nnco3)ccc2Cl)cn1)c1c(F)cccc1F` [Compound 71, N-(5-(2-chloro-5-(1,3,4-oxadiazol-2-yl)phenyl)pyridin-2-yl)-2,6-difluorobenzamide] registered a half-maximal inhibitory concentration (IC50) of 17 nM.

`O=C(Nc1ccc(-c2cc(-c3nccs3)ccc2Cl)nc1)c1c(F)cccc1F` [Compound 72, N-(6-(2-chloro-5-(thiazol-2-yl)phenyl)pyridin-3-yl)-2,6-difluorobenzamide] yielded a concentration for half-maximal inhibition (IC50) of 17 nM.

The compound `Cc1ccc(-c2nccs2)cc1-c1ccc(NC(=O)c2c(F)cccc2F)cn1` [Compound 74, 2,6-Difluoro-N-(6-(2-methyl-5-(thiazol-2-yl)phenyl)pyridin-3-yl)benzamide] came in with an IC50 of 25 nM.

For the compound `Cc1ccc(-c2nnco2)cc1-c1ccc(NC(=O)c2c(F)cccc2F)cn1` [Compound 75, 2,6-Difluoro-N-(6-(2-methyl-5-(1,3,4-oxadiazol-2-yl)phenyl)pyridin-3-yl)benzamide], it took 98 nM to reach half-maximal inhibition (IC50).

As for `O=C(Nc1ccc(-c2cc(-c3ncco3)ccc2Cl)nc1)c1c(F)cccc1F` [Compound 76, N-(6-(2-chloro-5-(oxazol-2-yl)phenyl)pyridin-3-yl)-2,6-difluorobenzamide], the IC50 is 9 nM.

Compound `Cc1ccc(-c2cnco2)cc1-c1ccc(NC(=O)c2c(F)cccc2F)cn1` [Compound 78, 2,6-Difluoro-N-(6-(2-methyl-5-(oxazol-5-yl)phenyl)pyridin-3-yl)benzamide] registered a half-maximal inhibitory concentration (IC50) of 10 nM. The IC50 values of the last two compounds are within 1.5-fold of each other.

The compound `Cc1ccc(-c2ncco2)cc1-c1ccc(NC(=O)c2ccc(Cl)cc2F)cn1` [Compound 80, 4-chloro-2-fluoro-N-(6-(2-methyl-5-(oxazol-2-yl)phenyl)pyridin-3-yl)benzamide] showed an IC50 of 180 nM.

The same experiment, now with this note: PHA 2.5 μg/mL, 20 hours, IL-2 ELISA.
`Cc1ccc(-c2ncco2)cc1-c1ccc(NC(=O)c2c(F)cccc2F)cn1` [Compound 13, 2,6-Difluoro-N-[6-(2-methyl-5-oxazol-2-yl-phenyl)-pyridin-3-yl]-benzamide] yielded an IC50 of 14 nM.

In turn, `O=C(Nc1ccc(-c2cc(-c3ncco3)ccc2Cl)nc1)c1c(F)cccc1F` [Compound 77, N-(6-(2-chloro-5-(oxazol-2-yl)phenyl)pyridin-3-yl)-2,6-difluorobenzamide hydrochloric acid salt] gave an IC50 of 11 nM.
